Laboratory results reported in patent publication US8097619B2, “Inhibitors of cyclin-dependent kinases, compositions and uses related thereto” (Agennix USA Inc., priority 2003, dated 2012).

Legend:
[1] = test system: HIV-1ROJO; test: Antiviral activity in infected PBMCs (reverse transcriptase in supernatant); format: cell-based
Protocol: (§1) The activity of the certain compounds of the invention was evaluated in peripheral blood mononuclear cells (PBMCs) infected with the low passage, clinical isolate HIV-1ROJO to generate a measure of the efficacy of these compounds in acutely infected cells. The use of these normal human cells allows an estimate of the therapeutic index of these compounds to be made. Fresh PBMCs from two donors were pooled and stimulated with PHA-P for 48-72 hours. The cells were then cultured in the presence of IL-2 to maintain the cell division initiated by the mitogenic signal. The virus was added at a multiplicity of infection of 0.1. The cells were cultured for 7 days post infection prior to the evaluation of efficacy. Viral replication was measured by the level of reverse transcriptase activity in the supernatant and cytotoxicity was measured with the MTS assay.

[2] = test system: peripheral blood mononuclear cells (PBMCs); test: Cytotoxicity in PBMCs (MTS assay); format: cell-based, human; conditions: read-out: TC50 (μM): 50% cytoxicity (MTS), 7 days
Protocol: as §1

[3] = test system: HCT-116 cells; test: Cell cycle analysis with propidium iodide (FACS); format: cell-based, human; conditions: exposure 24, 48 and 72 hours
Protocol: The percentage of cells in the G1, S and G2/M phases of the cell cycle was determined by staining DNA with propidium iodide and quantifying the number of cells with a 2N or 4N DNA complement by flow cytometry. Alterations in the distribution of cells across the cell cycle in response to exposure to the Cdk inhibitors was evaluated in this manner.
3 sets of HCT-116 cells (100,000 cells/set) were cultured in the presence of a test compound in T-25 flasks according to Table 1 below. Analysis was performed at 24, 48 and 72 hours. Adherent cells were collected by trypsinization, combined with floating cells in Falcon 12×75 flow cytometric tubes, and harvested by centrifugation. The media was decanted from the cell pellet, 100 μl of PI stain was added and the cells were incubated at 37° C. for 20-25 minutes. The cell count was preferably no greater than 2×10^6-4×10^6/ml. An equal volume (100 μl) of PI salt was then added to the cells, which were then incubated at 4° C. for 1-2 hours. The stained cells were analyzed on a Becton Dickinson FACScan flow cytometer. Samples were protected from light.

[4] = test system: HCT-116 cells; test: Calcein AM viability assay, HCT-116; format: cell-based; conditions: Homo sapiens, non-protein adjusted, Table 6
Protocol: The potency of Cdk inhibitors, as measured by loss of cellular viability, was determined with the Calcein AM assay (Molecular Probes). Calcein AM is a substrate of intracellular esterases, which is cleaved only in viable cells to generate a fluorescent product that can be quantified with a fluorescent plate reader. The fluorescent signal is proportional to the number of viable cells, and thus loss of signal in response to the exposure of cells to Cdk inhibitors correlates with a loss of viability. This assay can distinguish cell cycle arrest, in which cells may still by viable, from loss of viability and is thus well suited for the evaluation of Cdk inhibitors. A compound that is a potent cytotoxic, may cause significant loss of cell viability in such assay.
Cellular IC50's were determined in the human colorectal carcinoma cell line, HCT-116, and the normal human fibroblast, IMR90. Protein adjusted IC50's were also determined in HCT-116.
HCT-116 or IMR90 cells were recovered from sub-confluent plates by trypsinization and 1,000 or 4,000 cells, respectively, were plated in 24-well dishes and incubated overnight at 37° C., 5% CO2. […]
A 5 μM Calcein AM solution was prepared by dissolving a 50 μg aliquot of Calcein (Molecular Probes catalog #C3100) in 50 μl DMSO. […] (protected from light) and the fluorescent signal was read on a fluorescent plate reader (excitation 485/20 and emission 530/25).

[5] = test system: HCT-116 cells; test: Clonogenic survival assay with HCT-116 cells; format: cell-based, human; conditions: at 100 nM, time-course (FIG. 3)
Protocol: This assay was used to determine the concentration of a compound that results irreversible loss of viability after a specified period of exposure. Essentially, cells are exposed to compound for a period of 1, 2 or 5 days, and are then transferred to compound-free growth medium. After continued incubation in the compound-free medium for a number of days, the number of colonies recovered is counted as an estimate of the number of surviving cells.
Media (RPMI-1640, 10% FCS, pen/strep) was pre-warmed to 37° C. in a water bath. Cells were incubated and grown at 37° C., 5% CO2. Cells were recovered by trypsinization from sub-confluent plates and counted using a hemocytometer. 1×10^4 cells were plated in 25 mls of media in a 15 cm tissue culture dish. 14 plates were set up for each test compound, and were incubated overnight at 37° C. The compound was diluted into media at 7 concentrations and the media on the cells was replaced with that containing the test compound. Two plates were set up for each concentration of the compound to be tested, as well as two control plates without compound. […] Colonies were stained with crystal violet solution (0.4% crystal violet, 20% ethanol) for 5 minutes, washed twice with distilled water, and counted.

Row | Structure (SMILES) | TI: TC50/IC50 [1] | other results
1 | Cc1cn([C@H]2C[C@H](N=[N+]=[N-])[C@@H](CO)O2)c(=O)[nH]c1=O [AZT, reference compound] | >100 | CC50 [2]: > 1 µM
2 | CC(C)c1nn(-c2c(Cl)cccc2Cl)c2nc(Cc3ccc(OCCN4CCOCC4)c(O)c3)[nH]c(=O)c12 [Compound A32] | >10 | –
3 | CC(C)N1CCN(C(=O)COc2ccc(-c3[nH]nc4c3C(=O)c3c(NC(=O)NN5CCOCC5)cccc3-4)cc2)CC1.Cl [Compound A37] | – | effect on cell cycle distribution (PI FACS) [3]: terminally arrested in G1 and G2, with evidence of apoptosis and endo-reduplication
4 | CC(C)c1nn(-c2c(Cl)cc(Cl)cc2Cl)c2nc(Cc3ccc(OCCO)cc3)[nH]c(=O)c12 [Compound A61] | >10 | –
5 | CC(C)c1nn(-c2c(Cl)cc(Cl)cc2Cl)c2nc(Cc3ccc(OCC(C)(C)O)cc3)[nH]c(=O)c12 [Compound A64] | >10 | –
6 | O=C(Nc1cccc2c1C(=O)c1c(-c3ccc(CN4CCCC4CO)cc3)n[nH]c1-2)NN1CCOCC1 (centres unmarked) [Compound B6] | – | IC50 [4]: < 0.1 µM
7 | COCCN1CCN(Cc2ccc(-c3[nH]nc4c3C(=O)c3c(NC(=O)NN5CCOCC5)cccc3-4)cc2)CC1.Cl.Cl [Compound B16] | – | time within which IC50 reached [5]: 30 to 60 min; effect on cell cycle distribution (PI FACS) [3]: Analogous results
8 | CC(C)c1nn(-c2c(Cl)cccc2Cl)c2nc(Cc3ccc(CN4CCCC4)c(O)c3)[nH]c(=O)c12.Cl [Compound C3] | >10 | –
9 | CC(C)c1nn(-c2c(Cl)cc(Cl)cc2Cl)c2nc(Cc3ccc(CNC(CO)CO)n3C)[nH]c(=O)c12.Cl [Compound C4] | >1 | –
